Source: patent US11584747B2, “Substituted pyridopyrimidinonyl compounds useful as T cell activators” (BRISTOL-MYERS SQUIBB COMPANY, priority 2019, dated 2023)
Like-named read-outs stand apart in the source and are kept apart here.

What was measured:
human DGKζ = human DGKζ (Homo sapiens (Human), UniProt Q13574); experiment: DGKζ LIPGLO assay (extruded liposome substrate, ADP-Glo luminescence); assay type: biochemical; details: liposome assay; read-out: DGK zeta LIPGLO IC50
[1] = test system: human venous whole blood (IFN-γ); experiment: Human whole blood IFN-γ assay; assay type: cell-based; details: whole blood, normalized to 3 μM reference compound as 100% activation, read-out: IFN-γ Whole Blood Normalized EC50
Experimental: Human venous whole blood (22.5 μL per well), obtained from healthy donors, was pre-treated with compounds for one hour at 37° C. in a humidified 95% air/5% CO2 incubator. The blood was stimulated with 2.5 μL anti-human CD3 and anti-CD28 mAb at a final concentration of 1 μg/mL each for 24 hours at 37° C. IFN-γ in the supernatants was measured using AlphLISA kit (Cat #AL217).

human DGKα = human DGKα (Homo sapiens (Human), UniProt P23743); experiment: DGKα LIPGLO assay (extruded liposome substrate, ADP-Glo luminescence); assay type: biochemical; details: liposome assay; read-out: DGK alpha LIPGLO IC50
Sequence of human DGKα (P23743 whole entry, looked up): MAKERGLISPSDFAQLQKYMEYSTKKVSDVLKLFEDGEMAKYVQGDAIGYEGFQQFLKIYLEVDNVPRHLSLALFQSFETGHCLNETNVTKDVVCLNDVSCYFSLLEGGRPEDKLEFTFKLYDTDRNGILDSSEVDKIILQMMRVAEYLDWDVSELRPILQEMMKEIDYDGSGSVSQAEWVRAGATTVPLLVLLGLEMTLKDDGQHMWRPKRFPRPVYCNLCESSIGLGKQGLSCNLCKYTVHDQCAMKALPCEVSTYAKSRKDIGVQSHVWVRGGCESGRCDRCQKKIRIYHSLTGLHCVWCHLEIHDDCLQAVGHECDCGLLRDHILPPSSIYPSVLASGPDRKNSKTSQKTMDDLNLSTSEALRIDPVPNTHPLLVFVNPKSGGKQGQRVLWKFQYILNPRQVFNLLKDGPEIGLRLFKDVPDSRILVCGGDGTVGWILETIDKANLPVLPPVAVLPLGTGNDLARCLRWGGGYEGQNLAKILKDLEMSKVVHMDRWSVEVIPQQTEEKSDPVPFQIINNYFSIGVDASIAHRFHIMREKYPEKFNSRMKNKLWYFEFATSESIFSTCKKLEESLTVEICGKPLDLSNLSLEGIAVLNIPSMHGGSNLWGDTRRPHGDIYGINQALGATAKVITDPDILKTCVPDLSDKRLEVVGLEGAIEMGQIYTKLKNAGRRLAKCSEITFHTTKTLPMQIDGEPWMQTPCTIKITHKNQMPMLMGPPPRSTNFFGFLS

Sequence of human DGKζ (Q13574 other isoform, or with tags, fused parts or gaps): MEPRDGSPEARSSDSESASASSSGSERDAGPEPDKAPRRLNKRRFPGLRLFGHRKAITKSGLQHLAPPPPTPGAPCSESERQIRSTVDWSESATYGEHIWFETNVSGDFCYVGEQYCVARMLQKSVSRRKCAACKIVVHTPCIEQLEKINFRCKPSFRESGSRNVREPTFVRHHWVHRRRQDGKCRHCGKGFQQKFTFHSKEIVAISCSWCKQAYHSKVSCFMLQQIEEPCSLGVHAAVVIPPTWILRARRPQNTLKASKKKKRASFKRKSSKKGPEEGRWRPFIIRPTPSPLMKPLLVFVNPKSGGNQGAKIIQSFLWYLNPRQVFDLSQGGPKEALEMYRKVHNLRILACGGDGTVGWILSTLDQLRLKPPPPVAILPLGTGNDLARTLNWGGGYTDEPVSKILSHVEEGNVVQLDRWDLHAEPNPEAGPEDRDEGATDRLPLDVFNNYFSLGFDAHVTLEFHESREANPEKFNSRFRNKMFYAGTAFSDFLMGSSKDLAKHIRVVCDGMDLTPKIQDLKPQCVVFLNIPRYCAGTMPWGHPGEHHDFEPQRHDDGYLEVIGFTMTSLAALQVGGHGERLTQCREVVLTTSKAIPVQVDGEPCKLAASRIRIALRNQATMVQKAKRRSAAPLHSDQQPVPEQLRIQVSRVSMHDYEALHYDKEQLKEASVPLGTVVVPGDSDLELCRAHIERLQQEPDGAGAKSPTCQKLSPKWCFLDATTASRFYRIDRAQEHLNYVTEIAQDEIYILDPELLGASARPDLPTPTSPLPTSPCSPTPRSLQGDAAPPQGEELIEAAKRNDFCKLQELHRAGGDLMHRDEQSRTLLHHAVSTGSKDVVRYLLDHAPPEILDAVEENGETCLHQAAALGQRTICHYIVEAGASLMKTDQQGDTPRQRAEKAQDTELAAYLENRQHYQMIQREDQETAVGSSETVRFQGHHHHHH

Row | SMILES | IC50 (human DGKζ) | IC50 (human DGKα) | EC50 ([1]; Homo sapiens) | EC50 [1]
1 | COC[C@@H]1CN(c2nc(=O)n(C)c3ccc(C#N)nc23)[C@@H](C)CN1C(C)c1ccc(C(F)(F)F)cc1 (single isomer, unassigned) [Example 175] | 830 nM | 980 nM |  | 1690 nM
2 | CC[C@H]1CN(C(c2ccc(F)cc2)c2ccc(C(F)(F)F)cn2)[C@H](C)CN1c1nc(=O)n(C)c2ccc(C#N)nc12 (stereo partly drawn) [Example 114, 4-((2S,5R)-2-ethyl-4-((4-fluorophenyl)(5-(trifluoromethyl)pyridin-2-yl)methyl)-5-methylpiperazin-1-yl)-1-methyl-2-oxo-1,2-dihydropyrido[3,2-d]pyrimidine-6-carbonitrile] | 440 nM | 160 nM |  | 470 nM
3 | C[C@H]1CN(C(c2ccc(F)cc2)c2ccc(C(F)(F)F)cn2)[C@H](CO)CN1c1nc(=O)n(C)c2ccc(C#N)nc12 (single isomer, unassigned) [Example 181] | 12400 nM | 4920 nM |  | 730 nM
4 | CCC(c1ccc(OC(F)F)cc1)N1C[C@H](C)N(c2nc(=O)n(C)c3ccc(C#N)nc23)C[C@H]1CC (single isomer, unassigned) [Example 78] | 1130 nM | 470 nM | 75 nM | 
5 | CC[C@H]1CN(C(C)c2ccc3c(c2)OC(F)(F)O3)[C@H](CC)CN1c1nc(=O)n(C)c2ccc(C#N)nc12 (single isomer, unassigned) [Example 15] | 1220 nM | 490 nM |  | 1740 nM
6 | C[C@@H]1CN(c2nc(=O)n(C)c3ccc(C#N)nc23)[C@@H](C)CN1C(c1ccc(F)cc1)c1csc(C(F)(F)F)n1 (single isomer, unassigned) [Example 171] | 560 nM | 1560 nM |  | 220 nM
7 | CC[C@H]1CN(C(C)c2ccc(OCC3CC3)cc2)[C@H](CC)CN1c1nc(=O)n(C)c2ccc(C#N)nc12 (single isomer, unassigned) [Example 24] | 630 nM | 680 nM |  | 450 nM
8 | Cc1ccc(C(c2ccc(C)cc2)N2C[C@H](C)N(c3nc(=O)n(C)c4ccc(C#N)nc34)C[C@H]2C)cc1 [Example 125] | 990 nM | 740 nM | 500 nM | 
9 | CC[C@@H]1CN(c2nc(=O)n(C)c3ccc(C#N)nc23)[C@@H](C)CN1C(C)c1ccc(OC(F)(F)F)cc1F (single isomer, unassigned) [Example 82] | 2450 nM | 1540 nM |  | 530 nM
10 | CC(c1cc(F)c(F)c(F)c1)N1C[C@H](C)N(c2nc(=O)n(C)c3ccc(C#N)nc23)C[C@H]1C (single isomer, unassigned) [Example 139] | 2880 nM | 25600 nM | 20000 nM | 
11 | C[C@@H]1CN(c2nc(=O)n(C)c3ccc(C#N)nc23)[C@@H](C)CN1Cc1ccc(F)c(F)c1 [Example 133, 4-((2 S,5R)-4-(3,4-difluorobenzyl)-2,5-dimethylpiperazin-1-yl)-1-methyl-2-oxo-1,2-dihydropyrido[3,2-d]pyrimidine-6-carbonitrile] | 240 nM | 530 nM | 710 nM | 
12 | CC[C@@H]1CN(c2nc(=O)n(C)c3ccc(C#N)nc23)[C@@H](C)CN1C(C)c1ccc(OCC2CC2)cc1 (single isomer, unassigned) [Example 68] | 480 nM | 1630 nM | 1900 nM | 
13 | C[C@@H]1CN(c2nc(=O)n(C)c3ccc(C#N)nc23)[C@@H](C)CN1Cc1ccc(F)cc1Cl [Example 136, 4-((2S,5R)-4-(2-chloro-4-fluorobenzyl)-2,5-dimethylpiperazin-1-yl)-1-methyl-2-oxo-1,2-dihydropyrido[3,2-d]pyrimidine-6-carbonitrile] | 220 nM | 920 nM | 650 nM | 
14 | CC[C@H]1CN(C(C)c2ccc(OC(F)(F)F)cc2)[C@H](C)CN1c1nc(=O)n(C)c2ccc(C#N)nc12 (stereo partly drawn) [Example 123, 4-((2S,5R)-2-ethyl-5-methyl-4-(1-(4-(trifluoromethoxy)phenyl)ethyl)piperazin-1-yl)-1-methyl-2-oxo-1,2-dihydropyrido[3,2-d]pyrimidine-6-carbonitrile] | 1330 nM | 1380 nM | 2570 nM | 
15 | CC(c1ccc(C2CC2)cc1F)N1C[C@H](C)N(c2nc(=O)n(C)c3ccc(C#N)nc23)C[C@H]1C (single isomer, unassigned) [Example 169] | 2180 nM | 4620 nM |  | 1330 nM
16 | CC(c1ccc(OC(F)(F)F)cc1)N1C[C@H](C)N(c2nc(=O)n(C)c3ccc(C#N)nc23)C[C@H]1C (single isomer, unassigned) [Example 132] | 5950 nM | 700 nM |  | 2650 nM

The next compounds have a lower IC50 (human DGKζ) than those just listed; values first:

Row | IC50 (human DGKζ) | IC50 (human DGKα) | SMILES | EC50 ([1]; Homo sapiens) | EC50 [1]
17 | 44 nM | 330 nM | CC[C@@H]1CN(c2nc(=O)n(C)c3ccc(C#N)nc23)[C@@H](C)CN1C(C)c1ccc(C2CC2)cc1F (single isomer, unassigned) [Example 91] | 190 nM | 
18 | 22 nM | 81 nM | COC[C@@H]1CN(c2nc(=O)n(C)c3ccc(C#N)nc23)[C@@H](C)CN1C(c1ccc(F)cc1)c1ccc(C(F)(F)F)cn1 (single isomer, unassigned) [Example 179] |  | 55 nM
19 | 22 nM | 670 nM | CC[C@@H]1CN(c2nc(=O)n(C)c3ccc(C#N)nc23)[C@@H](C)CN1C(C)c1ccc2c(c1)OC(F)(F)O2 (single isomer, unassigned) [Example 71] |  | 66 nM
20 | 79 nM | 630 nM | CC[C@@H]1CN(c2nc(=O)n(C)c3ccc(C#N)nc23)[C@@H](C)CN1C(C)c1ccc(OC(C)C)cc1 (single isomer, unassigned) [Example 53] |  | 200 nM
21 | 36 nM | 170 nM | CC[C@@H]1CN(c2nc(=O)n(C)c3ccc(C#N)nc23)[C@@H](C)CN1C(c1ccc(F)cc1)c1cnc(C2CC2)s1 (single isomer, unassigned) [Example 103] |  | 94 nM
22 | 23 nM | 300 nM | CCC(c1ccc2c(c1)OC(F)(F)O2)N1C[C@H](C)N(c2nc(=O)n(C)c3ccc(C#N)nc23)C[C@H]1CC (single isomer, unassigned) [Example 79] | 300 nM | 
23 | 110 nM | 470 nM | CC[C@@H]1CN(c2nc(=O)n(C)c3ccc(C#N)nc23)[C@@H](C)CN1C(c1ccc(F)cc1)c1cnc(C2CC2)s1 (single isomer, unassigned) [Example 104] |  | 210 nM
24 | 14 nM | 210 nM | CC[C@@H]1CN(c2nc(=O)n(C)c3ccc(C#N)nc23)[C@@H](C)CN1C(C)c1ccc(OCC2CC2)cc1F (single isomer, unassigned) [Example 69] |  | 33 nM
25 | 28 nM | 30 nM | CC[C@@H]1CN(c2nc(=O)n(C)c3ccc(C#N)nc23)[C@@H](C)CN1C(C)c1ccc(C#N)cc1 (single isomer, unassigned) [Example 60] |  | 23 nM
26 | 180 nM | 2 nM | CC[C@@H]1CN(c2nc(=O)n(C)c3ccc(C#N)nc23)[C@@H](CC)CN1Cc1ccc(OC(F)(F)F)cc1 [Example 22, 4-((2S,5R)-2,5-diethyl-4-(4-(trifluoromethoxy)benzyl)piperazin-1-yl)-1-methyl-2-oxo-1,2-dihydropyrido[3,2-d]pyrimidine-6-carbonitrile] | 380 nM | 
